Where “and” joins values, the source holds several entries; their conditions need not be identical. Equal entries are not always repeated.
Tested on: P. falciparum 3D7 growth, pLDH absorbance
Experiment: blood-stage malaria parasite growth potency – strain 3D7, dose response (AID 2305)

N#Cc1ccc2c(c1)CCN(CCC1CCC(NC(=O)/C=C/c3c[nH]c4ccc(F)cc34)CC1)CC2 (stereo not drawn)
IC50: 690 nM

COc1ccc(C2N=C(N)N=C(N)N2c2ccc(Cl)cc2)cc1OC (stereo not drawn)
IC50: 1000 nM

OCCOCCNCc1cccc(C#Cc2cc3ncnc(Nc4ccc(OCc5cccc(F)c5)c(Cl)c4)c3s2)n1
IC50: 780 nM

COc1cc(CN2CCC(NC(=O)[C@H](Cc3ccccc3)NC(=O)Nc3ccc(Oc4ccccc4)cc3)C2)ccc1O (stereo partly drawn)
IC50: 810 nM

COc1cc(NC(=O)c2c(-c3c(F)cccc3Cl)noc2C)c(OC)cc1Cl
IC50: 860 nM

O=C(Nc1ccc2c(c1)OCO2)c1cc(-c2cccnc2)cnc1NCc1ccc2c(c1)OCO2
IC50: 1190 nM

Cc1[nH]c(C)c([N+](=O)[O-])c(=O)c1-c1ccc(Oc2ccccc2)cc1
IC50: 270 nM

COc1cc2ccccc2c(OC)c1CCNCCCCNCCc1c(OC)cc2ccccc2c1OC
IC50: 890 nM

CC(C)C1CCc2nc(N)nc(N)c2C1 (stereo not drawn)
IC50: 140 nM

Nc1c(Cl)cc(C(O)CNCCCCCOCCCc2ccc(O)c3ncccc23)cc1Cl (stereo not drawn)
IC50: 990 nM

CC(=O)Nc1ccc(CN2CCCN(c3cc(NC(=O)c4cccc(C)c4)ccn3)CC2)cc1
IC50: 860 nM

Cc1cc(N[C@@H](Cc2ccccc2)C(=O)Nc2ccccc2)nc(NCCc2ccc(F)cc2)n1
IC50: 860 nM

COc1cc(-c2nc(-c3ccc4c(c3)CCC4=NO)c(-c3ccncc3)[nH]2)ccc1OCCN1CCN(C)CC1
IC50: 760 nM

CCCCOc1ccc(/C=C/c2ccc(-c3c(C)[nH]c(C)c(Cl)c3=O)s2)cc1
IC50: 400 nM

COc1ccc(N2CCN(CCCCNC(=O)c3ccc(NC(=O)c4ccc(Cl)c(Cl)c4)cc3)CC2)c(OC)c1
IC50: 210 nM

O=C(Cc1ccc(F)cc1)NC1CCN(c2ccnc3cc(Cl)ccc23)C1 (stereo not drawn)
IC50: 480 nM

COc1cccc(Nc2nccc(-c3c(-c4cccc(NC(=O)c5c(F)cccc5F)c4)nn4ccccc34)n2)c1
IC50: 180 nM

CCN(CC)CCN(Cc1ccc(-c2ccc(C(F)(F)F)cc2)cc1)C(=O)Cn1c(CCc2ccc(F)c(F)c2F)nc(=O)c2ccc(F)cc21
IC50: 740 nM

COc1ccc(C2CC(c3cccs3)=NN2C(=O)CNc2cccc(C#N)c2)cc1OC (stereo not drawn)
IC50: 1450 nM

CC(C)(CN)c1nc(-c2ccc(Cl)c(O)c2)c(-c2ccnc(N)n2)[nH]1
IC50: 980 nM

Fc1ccc2nc(-c3ccc(-c4ccc(CN5CCN(c6cnccn6)CC5)cc4)s3)[nH]c2c1
IC50: 620 nM

O=C(/C=C/c1ccc(Cl)c(Cl)c1)NCCCCCN1CCC(CCNC(=O)C2(c3ccc(Cl)cc3)CC2)CC1
IC50: 920 nM

CC(C)(C)c1cc(CN2CCN(Cc3ccccc3)CC2)cc(C(C)(C)C)c1O
IC50: 770 nM

CC(C)S(=O)(=O)N1CCN(Cc2ccc3c(c2)nc(NC(=O)c2ccsc2)n3C[C@H](O)c2ccccc2)CC1
IC50: 270 nM

CC(C)Oc1cc2c(cc1NS(=O)(=O)c1ccc(-c3ccc(Cl)cc3)cc1)CCN(C)CC2
IC50: 1040 nM

CC(C)c1ccc(NC(=O)c2ccc(NCCCN(C)Cc3ccccc3)c([N+](=O)[O-])c2)cc1
IC50: 680 nM

COc1ccc(NC(=O)NC2CCN(c3ccnc4ccccc34)C2)cc1 (stereo not drawn)
IC50: 870 nM

CCN1CCC(N(CCCCCCCCc2ccc(C(F)(F)F)cc2)C(=O)Cn2c(CCc3cccc(F)c3F)cc(=O)c3ccccc32)CC1
IC50: 1200 nM

C=C[C@H]1CN(CCCCCCC)CC[C@H]1C[C@@H](Cc1ccnc2ccc(OC)cc12)OC(=O)[C@](OC)(c1ccccc1)C(F)(F)F
IC50: 880 nM

Nc1c2c(nc3ccc(C(=O)Nc4ccc(Br)cc4)cc13)CCCC2
IC50: 150 nM

O=C(Nc1ccc(OC2CCN(Cc3ccccc3)C2)c(Cl)c1)c1ccsc1 (stereo not drawn)
IC50: 730 nM

N#Cc1ccc(N2CCN(Cc3ccc(-c4cccc(-c5nc6ccccc6[nH]5)c4)cc3)CC2)nc1
IC50: 910 nM

COc1ccc2nccc(N3CCC(CCNCc4cc5c(cn4)OCCO5)CC3)c2n1
IC50: 220 nM

CC(C)COc1ccc(Cl)cc1Cc1ccc(-c2nc3ccc(Br)cc3[nH]2)o1
IC50: 1400 nM

COc1ccc(-c2cnc(N)c(-c3ccc(O)c(OC)c3)c2)cn1
IC50: 880 nM

CC[C@H]1CN(CCCC(=O)c2ccccc2)CC[C@H]1CCCc1ccnc2ccc(OC(=O)c3ccccc3)cc12
IC50: 830 nM

O=C(Nc1cccc(Cl)c1Cl)N1CCc2cc3nccc(N4CCN5CCC[C@H]5C4)c3cc21
IC50: 1040 nM

O=C(NCCC1CCN(CCc2c[nH]c3ccccc23)CC1)Nc1ccc(Cl)c(Cl)c1
IC50: 830 nM

O=C(/C=C/c1ccc(Cl)c(Cl)c1)NCCCCCN1CCN(C(=O)Nc2ccc(C(F)(F)F)cc2)CC1
IC50: 720 nM

Cc1[nH]c2cccc(F)c2c(=O)c1Cc1ccc(Cl)cc1 (tested in a mixture with another compound)
IC50: 230 nM and 350 nM

Nc1nc(N)c2cc(NC(=O)c3ccc(Cl)c(Cl)c3)ccc2n1
IC50: 150 nM

O=C(Cc1cc(=O)oc2cc(O)ccc12)N1CCC(CN2CCC(c3c[nH]c4ccccc34)CC2)CC1
IC50: 870 nM

O=C(Nc1ccc(Cn2ncc(N3CCCNCC3)c(Cl)c2=O)cc1)Nc1cc(F)cc(C(F)(F)F)c1
IC50: 770 nM

COc1cc(Cc2cnc(N)nc2N)cc(OC)c1OCCNC(=O)[C@@H](N)CCC(=O)O
IC50: 840 nM

Cc1ccc(Cn2ncc(N3CCCNCC3)c(Cl)c2=O)cc1NC(=O)Nc1ccc(-c2ccccc2)cc1
IC50: 630 nM

CCN(CC)CCOc1ccc(C(O)(C#CC(O)(c2ccc(Br)cc2)c2ccc(OCCN(CC)CC)cc2)c2ccc(Br)cc2)cc1 (stereo not drawn)
IC50: 620 nM

Cc1cccc(C)c1CNc1ccnc2cc(C#N)ccc12
IC50: 680 nM

COc1cccc(C=NNc2cc(C)nc3ccccc23)c1
IC50: 940 nM

COc1ccc(Nc2ncc3c(-c4cccc(NC(=O)Cc5ccncc5)c4)c[nH]c3n2)cc1OC
IC50: 1230 nM

O=C(Nc1cccc(OC2CCN(Cc3ccc(F)cc3)CC2)c1)c1ccc(C(F)(F)F)cc1
IC50: 950 nM

CN(C)CCOc1ccc(-c2cc(-c3ccncc3)c(-c3ccc(Cl)c(O)c3)[nH]2)cc1
IC50: 220 nM

Cc1cc(N(C)C)nc(Nc2ccc(NC(=O)c3ccc(F)cc3)cc2)n1
IC50: 710 nM

CN(c1ccccc1C(=O)Nc1ccccc1Oc1ccccc1)S(=O)(=O)c1ccccc1
IC50: 1150 nM

CC(C)C[C@H](Nc1ccc(C#N)c2ccccc12)C(=O)NC(C)(C)C12CC3CC(CC(C3)C1)C2
IC50: 920 nM

O=C(NCCCN1CCOCC1)c1csc(Nc2ccc(Cl)c(Cl)c2)n1
IC50: 920 nM

O=C(c1ccc([N+](=O)[O-])o1)N1CCN(c2nc3c(Cl)cccc3s2)CC1
IC50: 980 nM

CCN(CC)CCN(Cc1ccc(-c2ccc(C(F)(F)F)cc2)cc1)C(=O)Cn1cc(Cc2cnn(C)c2)c(=O)nc1/C=C/c1ccc(F)cc1
IC50: 1060 nM

CC(C)c1ccc(NC(=O)N[C@H]2CCN(CCCCCNC(=O)/C=C/c3ccc(Cl)c(Cl)c3)C2)cc1
IC50: 710 nM

S=C(NCCCCCN1CCC(c2c[nH]c3ccccc23)CC1)Nc1ccc(Cl)c(Cl)c1
IC50: 710 nM

CC1CC(NCCCNc2cc(=O)c3ccccc3[nH]2)c2c(Cl)c(Cl)cc(Cl)c21 (stereo not drawn)
IC50: 980 nM

CC(C)(C)c1ccc(CNC(=O)c2cc(CNC3CCNC3)ccc2O)cc1 (stereo not drawn)
IC50: 800 nM

O=C(Cc1n[nH]c(=O)c2ccccc12)Nc1cccc(C(=O)Nc2cccc(C(F)(F)F)c2)c1
IC50: 170 nM

Cc1ccc(CNc2cc(C(F)(F)F)nc(-c3ccc(S(C)(=O)=O)cc3)n2)cc1
IC50: 500 nM

COc1ccc(C=NNc2cc(C)nc3ccccc23)cc1OC
IC50: 860 nM

O=C(Nc1cc(C(F)(F)F)cc(C(F)(F)F)c1)NC(CCCN1CCC2(CC1)OCc1ccccc12)c1ccc(Cl)c(Cl)c1 (stereo not drawn)
IC50: 820 nM

CCC[C@@H]([C@@H](CC1CCCCC1)C(=O)N[C@H](C(=O)Nc1nccc(N)n1)C(C)(C)C)N(O)C=O
IC50: 530 nM

O=C(/C=C/c1ccc(Cl)c(Cl)c1)NCCCCCN1CCC(CCNC(=O)/C=C/c2ccccc2F)CC1
IC50: 870 nM

Cc1cc2nc(-c3ccc(C(=O)NCc4cccc(C(F)(F)F)c4)cc3)[nH]c2cc1C
IC50: 810 nM

CC[C@H](C)CNC(=O)c1cncc(-c2ccc(CN(C)C3CCN(C)CC3)cc2)c1
IC50: 990 nM

Cn1nccc1C(=O)NCCNCc1ccc(-c2cccc(-c3nc4ccc(C(F)(F)F)cc4[nH]3)c2)cc1
IC50: 120 nM

C=CCOC(=O)N1CCC(CNCc2ccc(-c3cccc(-c4nc5c(C)cccc5[nH]4)c3)cc2)C1 (stereo not drawn)
IC50: 120 nM

Cc1c(C2CCN(CCCCNC(=O)c3ccc(-c4ccc(C#N)cc4)cc3)CC2)c2ccccc2n1CCO
IC50: 1000 nM

O=C(NCc1ccc(C(=O)NCc2cccc3ccccc23)cc1)c1ccc(O)c(-c2ccc(Cl)c(Cl)c2)c1
IC50: 810 nM

CN(C)CC1CCCN1Cc1ccccc1-c1cnn(C)c(=O)c1Oc1ccccc1F (stereo not drawn)
IC50: 1310 nM

COc1cc(F)c2ncc(Cl)c(CCN3CCC(NCc4ccc5c(n4)NC(=O)CO5)CC3)c2c1
IC50: 500 nM

COc1cc(Nc2nccc(N3CCC(NC(=O)Nc4cccc(C(C)=O)c4)C3)n2)cc(OC)c1OC (stereo not drawn)
IC50: 970 nM

Cc1[nH]c2ccccc2c1C1=CCN(C[C@H]2C[C@@H]2C(=O)c2ccccc2)CC1
IC50: 350 nM

Nc1ccc2[nH]cc(C3CCN(CC4CCN(C(=O)/C=C/c5ccc(Cl)c(Cl)c5)CC4)CC3)c2n1
IC50: 700 nM

O=C(c1cnn(-c2ccccc2)c1C(F)(F)F)N1CCN(c2ccnc3cc(Cl)ccc23)CC1
IC50: 530 nM

CC(C)Nc1nc(NCCc2cnc[nH]2)nc(NCc2cccc3ccccc23)n1
IC50: 1010 nM

C=CCc1cc(Cc2cnc(N)nc2N)c2ccc(C)nc2c1OC
IC50: 690 nM

CN1CCCN(Cc2cccc(-c3cccc(NC(=O)c4cccc(C#N)c4)c3)c2)CC1
IC50: 820 nM

Oc1cc(Nc2ccnc3cc(I)ccc23)c(F)cc1Cl
IC50: 830 nM

CN(C)CCNC(=O)c1ccc(-c2cnc3ccc(NCc4ccc(Cl)c(Cl)c4)nn23)cc1
IC50: 910 nM

Cc1cc(NC(=O)NCCN2CCC(NS(=O)(=O)c3cccc(Br)c3)C2)c2ccccc2n1 (stereo not drawn)
IC50: 610 nM

COc1ccc(NC(=O)C2c3ccccc3C(=O)N(C3CCCC3)C2c2cccs2)cc1OC (stereo not drawn)
IC50: 1090 nM

CN1CCCc2cc(NC(=O)c3cc(-c4ccc(Cl)cc4)cs3)ccc2C1
IC50: 810 nM

CC(Cc1ccc(C(=O)Nc2ccc(CC(C)NCCc3cccc(Cl)c3)cc2)cc1)NCCc1ccc(C(F)(F)F)cc1 (stereo not drawn)
IC50: 570 nM

O=c1cc(NCCCNC2CCCc3c2cc(Cl)c(Cl)c3Cl)[nH]c2ccccc12 (stereo not drawn)
IC50: 280 nM

O=C(c1cc(-c2ccco2)[nH]n1)N1CCN(S(=O)(=O)c2ccc(Cl)cc2)CC1
IC50: 360 nM

FC(F)(F)c1ccc2nc(-c3ccc(-c4cccc(CN5CCCCC5)c4)cc3)[nH]c2c1
IC50: 140 nM

Cn1cc(C2CCN(CCCCNC(=O)c3ccc(C(=O)Nc4ccc(C#N)cc4)cc3)CC2)c2ccccc21
IC50: 720 nM

COc1ccc2nccc([C@@H](O)CN3CCC(NCc4cc5cc(Cl)ccc5[nH]4)CC3)c2c1
IC50: 130 nM

— PubChem BioAssay AID2305 (GlaxoSmithKline (GSK), 2010)
